This is an account of results in ChEMBL document CHEMBL1139159, “Synthesis and anti-HIV-1 activities of novel podophyllotoxin derivatives” (Bioorg Med Chem Lett, 2007).

The test system of data set [1] is C8166. As to the kind of experiment: Cytotoxicity against C8166 cells assessed as reduction in total cell number. It counts as cell-based. To be noted: Homo sapiens.
Data set [2] can be described thus: Therapeutic index, IC50 for C8166 cells to EC50 for HIV1. To be noted: human, read-out: Ratio IC50/EC50. Type of data set: cell-based.
The subject of data set [3] is Human immunodeficiency virus 1. As to the kind of experiment: Antiviral activity against HIV1 in C8166 cells assessed as inhibition of syncytia formation. It counts as functional, organism-based. To be noted: Human immunodeficiency virus 1, C8166.

Broadly, the IC50 is the concentration at which inhibition is half-maximal. As a reminder, the EC50 is the concentration that produces a half-maximal response. `Cc1cn([C@H]2C[C@H](N=[N+]=N)[C@@H](CO)O2)c(=O)[nH]c1=O`: the IC50 in data set [1] worked out at 500 µM. Moreover, the selectivity ratio in data set [2] was 55600. For the same compound, the EC50 in data set [3] came to 0.009 µM.
For `COc1cc([C@@H]2c3cc4c(cc3[C@H](NC(=O)OC[C@@H]3C=C[C@H](n5cc(C)c(=O)[nH]c5=O)O3)[C@H]3COC(=O)[C@H]23)OCO4)cc(OC)c1OC`, in that order: 3.39 µM, 14.4 and 0.24 µM.
For `COc1cc2c(cc1OC)[C@@H](NC(=O)OC[C@@H]1C=C[C@H](n3cc(C)c(=O)[nH]c3=O)O1)[C@H]1COC(=O)[C@@H]1[C@@H]2c1cc(OC)c(OC)c(OC)c1`, in that order: more than 295 µM, more than 67.1 and 4.39 µM.
The matching figures for `COc1cc2c(cc1OC)[C@@H](C#N)[C@H]1COC(=O)[C@@H]1[C@@H]2c1cc(OC)c(OC)c(OC)c1`: 138 µM, 131 and 1.05 µM.
In the case of `COc1cc([C@@H]2c3cc4c(cc3[C@H](NC(=O)OC[C@@H]3C=C[C@H](n5cc(C)c(=O)[nH]c5=O)O3)[C@H]3COC(=O)[C@H]23)OCO4)cc(OC)c1O`, the IC50 in data set [1] was 104 µM. Moreover, the selectivity ratio in data set [2] was 355. Further, the EC50 in data set [3] amounted to 0.29 µM.
The matching figures for `COc1cc([C@@H]2c3cc4c(cc3[C@@H](NC(=O)OC[C@@H]3C=C[C@H](n5cc(C)c(=O)[nH]c5=O)O3)[C@H]3COC(=O)[C@H]23)OCO4)cc(OC)c1O`: 79.1 µM, 467 and 0.17 µM.
For `COc1cc([C@@H]2c3cc4c(cc3[C@@H](NC(=O)OC[C@@H]3C=C[C@H](n5cc(C)c(=O)[nH]c5=O)O3)[C@H]3COC(=O)[C@H]23)OCO4)cc(OC)c1OC`, in that order: 68.2 µM, 12.5 and 5.46 µM.
For `COc1cc2c(cc1OC)[C@@H](C(=O)O)[C@H]1COC(=O)[C@@H]1[C@@H]2c1cc(OC)c(OC)c(OC)c1`, in that order: more than 437 µM, more than 9.31 and 46.9 µM.
With `COc1cc([C@@H]2c3cc4c(cc3[C@H](O)[C@H]3COC(=O)[C@H]23)OCO4)cc(OC)c1OC` [PODOFILOX], the IC50 in data set [1] is less than 0.15 µM. Moreover, the selectivity ratio in data set [2] stood at 53.3. Besides, in data set [3], the EC50 was 0.0029 µM.
